Results taken from ChEMBL document CHEMBL5360560, “Anti-Vibrio potential of natural products from marine microorganisms” (Eur J Med Chem, 2023).
Values after ≈ are worked out from the molar mass of the structure shown.

Key:
Type in all cases: functional
Vibrio parahaemolyticus [1] = assay: Antimicrobial activity against Vibrio parahaemolyticus assessed as bacterial growth inhibition
Vibrio cholerae = assay: Antimicrobial activity against Vibrio cholerae assessed as bacterial growth inhibition
Vibrio parahaemolyticus [2] = assay: Antimicrobial activity against Vibrio parahaemolyticus QDIO-10 assessed as bacterial growth inhibition measured after 24 hrs by microtitre plate reader assay
Vibrio anguillarum [3] = assay: Antimicrobial activity against Vibrio anguillarum QDIO-8 assessed as bacterial growth inhibition measured after 24 hrs by microtitre plate reader assay
Vibrio harveyi [4] = assay: Antimicrobial activity against Vibrio harveyi QDIO-9 assessed as bacterial growth inhibition measured after 24 hrs by microtitre plate reader assay
Vibrio parahaemolyticus [5] = assay: Antimicrobial activity against Vibrio parahaemolyticus MISR 21116 assessed as bacterial growth inhibition measured after 24 hrs by broth microdilution assay
Vibrio vulnificus [6] = assay: Antimicrobial activity against Vibrio vulnificus MISR 20716 assessed as bacterial growth inhibition measured after 24 hrs by broth microdilution assay
Vibrio alginolyticus [7] = assay: Antimicrobial activity against Vibrio alginolyticus MISR 30816 assessed as bacterial growth inhibition measured after 24 hrs by broth microdilution assay
Vibrio natriegens = assay: Antimicrobial activity against Vibrio natriegens assessed as bacterial growth inhibition
Vibrio alginolyticus [8] = assay: Antimicrobial activity against Vibrio alginolyticus assessed as bacterial growth inhibition
Vibrio parahaemolyticus [9] = assay: Antimicrobial activity against Vibrio parahaemolyticus assessed as zone of inhibition
Vibrio anguillarum [10] = assay: Antimicrobial activity against Vibrio anguillarum assessed as zone of inhibition
Vibrio harveyi [11] = assay: Antimicrobial activity against Vibrio harveyi assessed as zone of inhibition
Vibrio splendidus = assay: Antimicrobial activity against Vibrio splendidus assessed as zone of inhibition
Vibrio brasiliensis = assay: Antimicrobial activity against Vibrio brasiliensis assessed as bacterial growth inhibition
Vibrio harveyi [12] = assay: Antimicrobial activity against Vibrio harveyi QDIO-9 assessed as bacterial growth inhibition
Vibrio parahaemolyticus [13] = assay: Antimicrobial activity against Vibrio parahaemolyticus QDIO-10 assessed as bacterial growth inhibition
Vibrio parahaemolyticus [14] = assay: Antibacterial activity against Vibrio parahaemolyticus assessed as bacterial growth inhibition by agar dilution method
Vibrio parahaemolyticus [15] = assay: Antimicrobial activity against Vibrio parahaemolyticus ATCC 17802 assessed as bacterial growth inhibition mesured after 48 hrs by broth dilution assay
Vibrio parahaemolyticus [16] = assay: Bactericidal activity against Vibrio parahaemolyticus ATCC 17802 assessed as bacterial growth inhibition mesured after 48 hrs by broth dilution assay
Vibrio vulnificus [17] = assay: Antimicrobial activity against Vibrio vulnificus assessed as bacterial growth inhibition
Vibrio rotiferianus = assay: Antimicrobial activity against Vibrio rotiferianus assessed as bacterial growth inhibition
Vibrio campbellii = assay: Antimicrobial activity against Vibrio campbellii assessed as bacterial growth inhibition
Vibrio parahaemolyticus [18] = assay: Antimicrobial activity against Vibrio parahaemolyticus ATCC 17802 assessed as bacterial growth inhibition by microplate reader assay
Vibrio alginolyticus [19] = assay: Antimicrobial activity against Vibrio alginolyticus assessed as bacterial growth inhibition by microplate reader assay
Vibrio ichthyoenteri = assay: Antimicrobial activity against Vibrio ichthyoenteri assessed as bacterial growth inhibition

Question: Which MIC (Vibrio parahaemolyticus [1]) does the source give for `O=C(O)c1cc(Cl)c[nH]1` here?
Answer: 25 µg/mL (≈ 172 µM)

Question: What about the MIC (Vibrio cholerae) of the same compound?
Answer: 100 µg/mL (≈ 687 µM)

Question: What does the source list for `CC(C)(O)CCCC(C)(O)c1ccc(C(=O)O)cc1O` (stereo unspecified)?
Answer: MIC (Vibrio parahaemolyticus [2]): 4 µg/mL (≈ 14.2 µM); MIC (Vibrio anguillarum [3]): 4 µg/mL (≈ 14.2 µM); MIC (Vibrio harveyi [4]): 4 µg/mL (≈ 14.2 µM)

Question: Which results are given for `C[C@@H]1CCC/C=C/[C@@H]2O[C@H](C[C@@H](O)C/C=C\C=C\[C@@H](O)C/C=C/C=C\C(=O)O1)[C@H]2O`?
Answer: MIC (Vibrio parahaemolyticus [5]): 64 µg/mL (≈ 153 µM); MIC (Vibrio vulnificus [6]): 64 µg/mL (≈ 153 µM); MIC (Vibrio alginolyticus [7]): 64 µg/mL (≈ 153 µM)

Question: With `O=C(O)c1ccc[nH]1` as the compound, how does the MIC (Vibrio parahaemolyticus [1]) read?
Answer: 25 µg/mL (≈ 225 µM)

Question: And the MIC (Vibrio cholerae)?
Answer: 50 µg/mL (≈ 450 µM)

Question: How did the MIC (Vibrio natriegens) turn out when `Cc1cc2c(c(=O)[nH]1)O[C@H]([C@@H](O)CC(C)C)O2` was run?
Answer: 0.001 µg/mL (≈ 0.00418 µM)

Question: How did the MIC (Vibrio alginolyticus [8]) turn out when `COC(=O)[C@@H]1CCCN1C(=O)c1cc2c([nH]c3cc(OC)ccc32)c(C=C(C)C)n1` was run?
Answer: 32 µg/mL (≈ 78.5 µM)

Question: What does the source list for `CC(=O)N[C@H]1[C@@H](O[C@]2(C)C=C[C@@H]([C@@H](C)CCC=C(C)C)CC2)O[C@H](CO)[C@@H](O)[C@@H]1O`?
Answer: inhibition zone (IZ) (Vibrio parahaemolyticus [9]): 6.1 mm; MIC (Vibrio anguillarum [10]): 6.1 µg/mL (≈ 14.3 µM); MIC (Vibrio harveyi [11]): 6.1 µg/mL (≈ 14.3 µM); MIC (Vibrio splendidus): 6.1 µg/mL (≈ 14.3 µM)

Question: With `CC(C)[C@@H](C)/C=C/[C@@H](C)[C@H]1CC[C@H]2C3=CC(=O)[C@@]45C[C@@H](O)CC[C@]4(C)[C@]3(CC[C@]12C)O5` as the compound, how does the MIC (Vibrio brasiliensis) read?
Answer: 16 µg/mL (≈ 37.5 µM)

Question: How did the MIC (Vibrio parahaemolyticus [2]) turn out when `COC(=O)c1ccc([C@](C)(O)CCCC(C)(C)O)c(O)c1` was run?
Answer: 4 µg/mL (≈ 13.5 µM)

Question: And the MIC (Vibrio anguillarum [3])?
Answer: 4 µg/mL (≈ 13.5 µM)

Question: And the MIC (Vibrio harveyi [4])?
Answer: 4 µg/mL (≈ 13.5 µM)

Question: Which MIC (Vibrio harveyi [12]) does the source give for `C=C[C@@]1(C)CCC2=C(C(=O)C=C3C(C)(C)CCC[C@]32O)[C@H]1O` here?
Answer: 8 µg/mL (≈ 26.5 µM)

Question: What about the MIC (Vibrio parahaemolyticus [13]) of the same compound?
Answer: 8 µg/mL (≈ 26.5 µM)

Question: For `CO[C@](C)(CCCC(C)(C)O)c1ccc(C(=O)O)cc1O`, which MIC (Vibrio parahaemolyticus [2]) is on record?
Answer: 4 µg/mL (≈ 13.5 µM)

Question: And the MIC (Vibrio anguillarum [3])?
Answer: 4 µg/mL (≈ 13.5 µM)

Question: And the MIC (Vibrio harveyi [4])?
Answer: 4 µg/mL (≈ 13.5 µM)

Question: How did the MIC (Vibrio parahaemolyticus [9]; Vibrio parahaemolyticus) turn out when `CC1(C)C=Cc2c(ccc3c2[N+]([O-])=C2C3CC34NC(=O)[C@@]5(CCCN5C3=O)C[C@H]4C2(C)C)O1` (stereo partly specified) was run?
Answer: 8 µg/mL (≈ 17.9 µM)

Question: And the MIC (Vibrio alginolyticus [8])?
Answer: 16 µg/mL (≈ 35.8 µM)

Question: Which MIC (Vibrio alginolyticus [8]) does the source give for `C[C@]12CC[C@H](O)[C@](C)(CO)[C@@H]1CC[C@]1(C)[C@@H]2C[C@@H](O)[C@@H]2[C@@]3(C)CC[C@H]([C@](C)(O)CO)[C@@H]3CC[C@]21C` here?
Answer: 16 µg/mL (≈ 32.5 µM)

Question: What does the source list for `C[C@@H]1CCC/C=C/[C@H](O)C[C@@H](O)C/C=C\C=C\[C@@H](O)C/C=C/C=C\C(=O)O1`?
Answer: MIC (Vibrio parahaemolyticus [5]): 64 µg/mL (≈ 170 µM); MIC (Vibrio vulnificus [6]): 64 µg/mL (≈ 170 µM); MIC (Vibrio alginolyticus [7]): 64 µg/mL (≈ 170 µM)

Question: Which MIC (Vibrio parahaemolyticus [14]) does the source give for `CC(C)[C@H]1C(=O)N(C)[C@@H](C)C(=O)NCCC[C@H](NC(=O)/C=C/C=C/C(=O)O)C(=O)N1C` here?
Answer: 3.13 µM (≈ 1.37 µg/mL)

Question: Which MIC (Vibrio parahaemolyticus [15]) does the source give for `COc1ccc(Oc2cc(C)cc(O)c2)c(O[C@@H]2O[C@H](CO)[C@H](O)[C@H](O)[C@H]2O)c1` here?
Answer: 0.625 µM (≈ 0.255 µg/mL)

Question: And the MBC (Vibrio parahaemolyticus [16])?
Answer: 2.5 µM (≈ 1.02 µg/mL)

Question: `CO[C@H](C)[C@@H](/C=C/C=C/C(=O)N(C)[C@H]1CCCN(C)C(=O)[C@H](C)N(C)C(=O)[C@H](C(C)C)N(C)C1=O)OC` was tested. Which MIC (Vibrio parahaemolyticus [14]) did it give?
Answer: 25 µM (≈ 13.1 µg/mL)

Question: How did the MIC (Vibrio vulnificus [17]) turn out when `COC(OC)c1ccc2c(c1O)C(=O)c1ccccc1C2=O` was run?
Answer: 15.6 µg/mL (≈ 52.3 µM)

Question: What about the MIC (Vibrio rotiferianus) of the same compound?
Answer: 15.6 µg/mL (≈ 52.3 µM)

Question: And the MIC (Vibrio campbellii)?
Answer: 15.6 µg/mL (≈ 52.3 µM)

Question: How did the MIC (Vibrio harveyi [12]) turn out when `C=C[C@@]1(C)CCC2=C(C(=O)C=C3C(C)(C)CCC[C@]32O)[C@@H]1O` was run?
Answer: 8 µg/mL (≈ 26.5 µM)

Question: And the MIC (Vibrio parahaemolyticus [13])?
Answer: 8 µg/mL (≈ 26.5 µM)

Question: How did the “inhibition zone (IZ)” value (Vibrio parahaemolyticus [9]) turn out when `CC(=O)CCC[C@H](C)[C@@H]1C=C[C@@](C)(O[C@H]2O[C@H](CO)[C@@H](O)[C@H](O)[C@H]2NC(C)=O)CC1` was run?
Answer: 6.1 mm

Question: What about the MIC (Vibrio anguillarum [10]) of the same compound?
Answer: 6.1 µg/mL (≈ 14.3 µM)

Question: And the MIC (Vibrio harveyi [11])?
Answer: 6.1 µg/mL (≈ 14.3 µM)

Question: What about the MIC (Vibrio splendidus) of the same compound?
Answer: 6.1 µg/mL (≈ 14.3 µM)

Question: Which MIC (Vibrio parahaemolyticus [14]) does the source give for `COC(=O)/C=C/C=C/C(=O)N[C@H]1CCCNC(=O)[C@H](C)N(C)C(=O)[C@H](C(C)C)N(C)C1=O` here?
Answer: 6.25 µM (≈ 2.82 µg/mL)

Question: `COc1c(Cl)c(C)c(Cl)c2c1[C@H]1c3c(O)c(C)cc(O)c3C[C@@H]1C(C)(C)O2` (racemic) was tested. Which MIC (Vibrio parahaemolyticus [18]) did it give?
Answer: 20 µM

Question: What about the MIC (Vibrio alginolyticus [19]) of the same compound?
Answer: 20 µM

Question: Which results are given for `COc1c(Cl)c(C)c(Cl)c2c1[C@H]1c3c(O)c(C)cc(O)c3C[C@H]1C(C)(C)O2` (racemic)?
Answer: MIC (Vibrio parahaemolyticus [18]): 10 µM; MIC (Vibrio alginolyticus [19]): 10 µM

Question: With `Cc1cc(O)cc(Oc2cc(C)cc(O)c2O)c1` [CORDYOL C] as the compound, how does the MIC (Vibrio ichthyoenteri) read?
Answer: 40 µg/mL (≈ 162 µM)

Question: For `COc1cc(C)c(Oc2cc(C)cc(O)c2)c(O)c1` [CYPERIN], which MIC (Vibrio parahaemolyticus [15]) is on record?
Answer: 0.312 µM (≈ 0.0812 µg/mL)

Question: What about the MBC (Vibrio parahaemolyticus [16]) of the same compound?
Answer: 0.312 µM (≈ 0.0812 µg/mL)

Question: For `Cc1cc(O)cc(Oc2cc(C)cc(O)c2)c1` [DIORCINOL], which MIC (Vibrio ichthyoenteri) is on record?
Answer: 40 µg/mL (≈ 174 µM)

Question: For `Cc1cc(O)c2c(c1)C(=O)c1cc(O)cc(O)c1C2=O` [EMODIN], which MIC (Vibrio vulnificus [17]) is on record?
Answer: 15.6 µg/mL (≈ 57.7 µM)

Question: And the MIC (Vibrio rotiferianus)?
Answer: 15.6 µg/mL (≈ 57.7 µM)

Question: What about the MIC (Vibrio campbellii) of the same compound?
Answer: 15.6 µg/mL (≈ 57.7 µM)
